From publication PMC11078216, “Discovery of potent and selective activity-based probes (ABPs) for the deubiquitinating enzyme USP30” (RSC Chemical Biology, 2024)

Target: T1, USP30 (Homo sapiens, UniProt Q70CQ3)
T1 construct: We next determined cellular engagement of endogenous USP30 with IMP-2587 or IMP-2586; endogenous in cells; host or cells: HEK293T
T1 sequence (Q70CQ3 1-517): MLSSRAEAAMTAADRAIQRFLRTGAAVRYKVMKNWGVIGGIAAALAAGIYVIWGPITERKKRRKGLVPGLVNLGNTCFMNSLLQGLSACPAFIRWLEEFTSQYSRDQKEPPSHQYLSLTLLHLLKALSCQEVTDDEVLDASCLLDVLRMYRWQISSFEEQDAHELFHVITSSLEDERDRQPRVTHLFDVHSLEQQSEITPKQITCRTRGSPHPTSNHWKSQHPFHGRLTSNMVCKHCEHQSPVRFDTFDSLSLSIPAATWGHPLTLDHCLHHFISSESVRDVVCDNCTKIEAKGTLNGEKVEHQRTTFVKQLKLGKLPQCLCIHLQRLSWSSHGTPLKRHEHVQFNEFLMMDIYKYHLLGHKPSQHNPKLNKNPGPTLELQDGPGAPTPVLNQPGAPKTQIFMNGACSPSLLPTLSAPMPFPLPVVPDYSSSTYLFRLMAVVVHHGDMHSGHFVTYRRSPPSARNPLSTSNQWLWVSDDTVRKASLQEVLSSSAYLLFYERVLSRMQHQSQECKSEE
Test: Direct target engagement in HEK293T cells: CuAAC ligation and in-gel fluorescence
Assay type: cell-based
Conditions: for probe concentration for detection of USP30 activity in intact cells: following 1 hour incubation
Method: We next determined cellular engagement of endogenous USP30 with IMP-2587 or IMP-2586. […] In-cell concentration-dependent competition by IMP-2587 and IMP-2586 for USP30 were confirmed below 100 nM probe (Fig. 2b and c), whilst engagement of an exemplar unrelated DUB, UCHL1, occurred only at a much higher concentration (30 000 nM). We hypothesise that incomplete modification of USP30 by HA-Ub-VME is likely due to limited retention of USP30 activity in cell lysates, which have likely had the USP30 transmembrane domain compromised, highlighting the potential utility of a small molecule USP30 ABP applicable directly in intact cells. Direct USP30 target engagement by IMP-2587 and IMP-2586 was confirmed in HEK293T cells following 1 h probe treatment followed by cell lysis and CuAAC bio-orthogonal ligation to capture reagent azido-TAMRA-biotin (AzTB) for IMP-2587 or alkyne-TAMRA-biotin for IMP-2586 (Fig. 3a).[27] […] This unspecific background labelling is presumably due to the previously reported higher off-target CuAAC reactivity of an alkyne-bearing capture reagent, applied here due to incorporation of an azide tag in IMP-2586.[28] Moreover, the labelling of USP30 was further confirmed by biotin pulldown and immunoblotting. […]
d) Live cell probe incubation, lysate click chemistry and precipitation 6-well HEK293T cells were incubated with media containing compounds ABP 2 and ABP 4 at indicated concentrations for 1 h at 37 °C. The cells were washed with PBS and lysed with lysis buffer (50 μL (1% (v/v) Triton X-100, 0.1% (w/v) sodium dodecyl sulfate (SDS), EDTA-free complete protease inhibitor cocktail (1×, Roche) in PBS on ice for 10 min. The lysates were scraped and transferred to corresponding Lo-Bind Eppendorfs. Each lysate was sonicated for 1 minute, and the samples centrifuges at 5,000 x g at 4 °C for 5 minutes to pellet insoluble cellular debris. The supernatant was collected, and protein concentration was determined using the DC Protein Assay (Bio-Rad) as per manufacturer’s instructions, and normalised to lowest concentrated sample (e.g. 1 mg/mL, using lysis buffer). The following “click mixture” was prepared separately, preparing 6 μL for every 100 μL of […]
Capture reagent (AzRB/AzT for ABP 2, YnT/YnB for ABP 4 10 mM in DMSO, 1 vol; final concentration […]
The lysate samples (10-20 μg) were mixed with 4× Laemmli sample loading buffer (250 mM Tris -HCl pH 6.8, 30% (v/v) glycerol, 10% (w/v) SDS, 0.05% (w/v) bromophenol blue) supplemented with 20% v/v β-mercaptoethanol (BME) and boiled for 10 min at 95 °C. […] Gel were imaged on a Typhoon imager (GE Healthcare; λEx 532 nm, λEm 575 nm for TAMRA. For protein loading quantification, gels were stained with Coomassie blue staining solution overnight, rinsed with water and imaged on an ImageQuant™ […]

[1] = HEK293T, 1 h probe treatment, CuAAC to AzTB

SMILES	probe concentration for detection of USP30 activity in intact cells [nM]	lowest probe concentration showing major band at ca. 60 kDa (in-gel fluorescence) [1] [nM]	probe concentration above which additional bands are labelled (in-gel fluorescence) [1]
N#CN1CC[C@@H](NC(=O)c2cc(-c3ccccc3Oc3ccc(N=[N+]=[N-])cc3)n[nH]2)C1 [IMP-2586]	3 to 10		
C#Cc1cccc(-c2cc(NC(=O)CC3CCN(C#N)C3)on2)c1 (stereo not shown) [IMP-2587]	3 to 10	3	above 30 nM
